Measured values from US5792777A, “Biphenyl quinuclidines” (Zeneca Limited, priority 1991, dated 1998).

Assays:
[1] = target: T1, Squalene Synthetase (Rattus norvegicus, UniProt Q02769); assay: Inhibition of Squalene Synthetase (formation of squalene from tritiated farnesyl pyrophosphate, rat liver microsomal protein); format: biochemical; conditions: 20 μM 1-[3H]-farnesyl pyrophosphate, 15 minutes, 37° C., read-out: IC50 (concentration which results in a 50% inhibition of squalene production)
T1 construct: from tissue; host or cells: rat liver microsomes
T1 sequence (Q02769 1-416): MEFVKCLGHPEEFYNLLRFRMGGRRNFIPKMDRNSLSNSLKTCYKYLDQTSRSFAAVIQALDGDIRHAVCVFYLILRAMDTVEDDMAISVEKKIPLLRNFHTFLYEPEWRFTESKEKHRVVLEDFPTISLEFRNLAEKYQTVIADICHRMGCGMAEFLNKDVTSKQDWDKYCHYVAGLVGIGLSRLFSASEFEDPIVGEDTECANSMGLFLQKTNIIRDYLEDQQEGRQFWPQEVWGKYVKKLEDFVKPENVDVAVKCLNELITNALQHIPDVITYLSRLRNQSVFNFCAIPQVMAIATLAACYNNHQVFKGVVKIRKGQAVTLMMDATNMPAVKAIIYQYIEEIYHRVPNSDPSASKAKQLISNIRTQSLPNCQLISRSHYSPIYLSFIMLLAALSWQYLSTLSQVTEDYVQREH
Description: (a) Inhibition of Squalene Synthetase
In this test, the ability of a compound to prevent the formation of squalene from a radioactive substrate (tritiated farnesyl pyrophosphate) is assessed.
The test compound is incubated at a concentration of 25 micromolar in 200 μl of a buffered solution containing potassium phosphate (50 mM), MgCl2 (4.95 mM), KF (9.9 mM), NADPH (0.9 mM) and rat liver microsomal protein (20 μg). Rat liver microsomes are prepared by the method described in published European Patent Application No. 324,421 and stored in liquid nitrogen prior to assay. Assay vials are kept at 37° C. throughout the incubation.
The reaction is started with the addition of the substrate (1-[^3 H]-farnesyl pyrophosphate), final concentration 20 μM, and stopped after 15 minutes reaction time with the addition of 50 μl of 4% KOH. The reaction products are separated from unreacted substrate after application to a C-18 octadecyl 1ccBond column (Analytichem Int product No. 617101). An aqueous fraction is eluted with 250 μl of 0.1M KOH. Squalene is then eluted with 1.0 ml 10% ethylacetate in hexane and radioactivity determined. The difference in radioactivity in the presence and absence of the test compound is used to determine the level of inhibition. […] The IC50 can then be determined from a plot of percentage inhibition against concentration of test compound.

[2] = system: de novo hepatic cholesterol synthesis; assay: Acute Rat Cholesterol Synthesis Assay (de novo hepatic cholesterol synthesis from exogenously administered 14C-acetate); format: in vivo; conditions: female rats, oral gavage, ip or iv (route not specified), 14C-acetate ip after 1 hour, blood sample a further hour later
Description: (b) Acute Rat Cholesterol Synthesis Assay
This is an acute in vivo test in the rat to measure de novo hepatic cholesterol synthesis from exogenously administered ^14 C-acetate.
Female rats (35-55 g) are housed in reverse lighting conditions (red light from 0200h-1400h) for a period of about 2 weeks prior to test. Animals are allowed free access to chow and drinking water throughout this period. At test, animals should weigh 125-150 g.
Test compounds may be administered by oral gavage, dissolved or suspended in 0.5% polysorbate, or by ip or iv dosing. Control animals receive vehicle alone. After 1 hour the rats are injected ip with 25 μCi [2-^14 C]-acetate (NEN DUPONT. specific activity, 45-60 mCi/mmol NEC-085H, or AMERSHAM specific activity, 50-60 mCi/mmol CFA 14) in a volume of 0.25 ml saline (100 μCi/ml). After a further hour, rats are terminally anaesthetised with halothane and a blood sample obtained from the abdominal vena cava.
1 ml of plasma is lyophilised and then saponified in 2 ml ethanolic KOH (1 part 33% KOH, 9 parts ethanol) at 75° C. for 2 hours. After addition of an equal quantity of water, non-saponifiable lipids are extracted with two 5 ml volumes of hexane. The hexane extracts are evaporated to dryness and the residues dissolved in ethanol to determine cholesterol specific radioactivity. ED50 values can be determined in the standard way.

Row | SMILES | IC50 [1] [nM] | ED50 [2] [mg/kg]
1 | OC1(c2cccc(-c3ccccc3)c2)CN2CCC1CC2 (centres unmarked) [Example 3, 3-(biphenyl-3-yl)-3-hydroxyquinuclidine] | 600 | 
2 | OC1(c2ccc(-c3ccc(F)cc3)cc2)CN2CCC1CC2 (centres unmarked) [Example 6, 3-[4'-fluorobiphenyl-4-yl]-3-hydroxyquinuclidine] |  | 8
